Data as given in patent publication US20260158011A1 (Achieve Life Sciences, Inc., priority 2023, published 2026).
Where two headings read alike, the source gives them in different places.

Tested on: adults who smoked 10 cigarettes per day
Conditions: for Biochemically confirmed continuous smoking abstinence Weeks 3-6, % / Biochemically confirmed continuous smoking abstinence Weeks 9-12, %: primary outcome; for Biochemically confirmed continuous smoking abstinence Weeks 6-24, % / Biochemically confirmed continuous smoking abstinence Weeks 12-24, %: secondary outcome; for Relapse-free abstinence from week 6 to 24: intent-to-treat
Procedure: The trial was conducted at 17 U.S. sites. Adults aged 18 years were eligible if they currently smoked 10 cigarettes per day, had expired air carbon monoxide (CO) ≥10 ppm, and intended to quit smoking. Individuals were excluded if they used any non-cigarette tobacco product (pipe tobacco, cigars, smokeless tobacco, hookah), electronic cigarettes, smoking cessation medication (bupropion, varenicline, nortriptyline, nicotine replacement product), or marijuana (smoked or vaped) in the 28 days before randomization or planned to use them during the study. Other exclusion criteria included uncontrolled hypertension, hepatic or renal impairment, past 3-month history of acute myocardial infarction, unstable angina, cerebrovascular incident, or hospitalization for congestive heart failure, diagnosis of schizophrenia or bipolar disorder, current psychosis, suicidal ideation or suicide risk (Columbia Suicide Severity Rating Scale), (1) moderate to severe depression symptoms (Hospital Anxiety and Depression Scale score ≥11), (2) or a positive urinary screen for illicit drugs. (Full criteria in Trial Protocol).
At a screening visit, individuals provided written informed consent, completed a medical history, brief physical examination, electrocardiogram and laboratory tests, agreed to a quit date 5 to 7 days after study drug initiation, and recorded the number of cigarettes smoked daily for 7 days. At a second visit, participants who met inclusion and exclusion criteria were randomly assigned to study arm, received brief smoking cessation counseling, set their quit date within 5 to 7 days and started study medication the next day. A predetermined central computer-generated randomization sequence was used to assign participants (1:1:1) stratified by study site to receive placebo TID for 12 weeks (Arm A), 3 mg cytisinicline TID for 6 weeks followed by placebo TID for 6 weeks (Arm B), or 3 mg cytisinicline TID for 12 weeks (Arm C).
Study medication was identical-appearing tablets, containing 3 mg cytisinicline or placebo taken orally TID for 12 weeks. Participants were followed for 12 additional weeks after treatment ended. All participants received 10 minutes of brief smoking cessation behavioral support provided by trained counselors at each visit from randomization through week 24.
Assessments after randomization were conducted at in-person visits on day 2, weekly from 1 to 12 weeks, and at weeks 16, 20, and 24. Participants who discontinued study drug prematurely were encouraged to remain in the study and complete all assessment visits. Smoking status was assessed by self-report of cigarette abstinence since the last visit, measured weekly from weeks 2 through 12. Self-reported abstinence at weeks 16, 20, and 24 used the Russell criteria of not smoking more than 5 cigarettes since the last visit (3). A breath carbon monoxide (CO) level was measured at each visit. Verified abstinence required self-reported nonsmoking and a breath carbon monoxide (CO) <10 ppm. Participants not meeting these criteria or with missing data were classified as smoking.
The study had two primary endpoints. […] Study success was defined as either primary endpoint meeting statistical criterion. The secondary outcome measures were verified continuous cigarette abstinence to week 24 (weeks 3 to 24 for Arms B vs. A; weeks 9 to 24 for Arms C vs. A). A third secondary outcome measure compared the risk of relapse to smoking between weeks 6 and 24 among participants assigned to cytisinicline who achieved abstinence by week 6; these individuals were either switched to placebo at week 6 (Arm B) or continued cytisinicline to week 12 (Arm C). Other pre-specified endpoints included comparing the difference between arms in verified 7-day point-prevalence abstinence at each visit from week 2 through week 24 and assessing for evidence of effect modification for subsets defined by baseline attributes.

[1] = Arm B Cytisinicline 6 weeks, N = 269
[2] = Arm C Cytisinicline 12 weeks, N = 270

O=c1cccc2n1C[C@@H]1CNC[C@H]2C1 [cytisine, (−)-Cytisine]
OR for relapse-free abstinence week 6 to 24, Arm B vs Arm C (12-week versus 6-week cytisinicline): 1.31 | Biochemically confirmed continuous smoking abstinence Weeks 3-6, % [1]: 25.3% | Biochemically confirmed continuous smoking abstinence Weeks 9-12, % [1]: 22.3% | Biochemically confirmed continuous smoking abstinence Weeks 6-24, % [1]: 8.9% | Biochemically confirmed continuous smoking abstinence Weeks 12-24, % [1]: 13.8% | OR versus placebo, continuous abstinence weeks 3 to 24 (Arm B vs. A): 3.7 | OR versus placebo, continuous abstinence weeks 3 to 6 (Arm B vs. A (6-week treatment)): 8.0 | Risk Difference, continuous smoking abstinence Weeks 6-24 (Arm B vs. Arm A, Cytisinicline-6 weeks vs. placebo, 95% CI 0.03, 0.09): 0.06 | Risk Difference, continuous smoking abstinence Weeks 12-24 (Arm B vs. Arm A, Cytisinicline-6 weeks vs. placebo, 95% CI 0.04, 0.13): 0.09 | Risk Difference, continuous smoking abstinence Weeks 9-12 (Arm B vs. Arm A, Cytisinicline-6 weeks vs. placebo, 95% CI 0.10, 0.20): 0.15 | Risk Difference, continuous smoking abstinence Weeks 3-6 (Arm B vs. Arm A, Cytisinicline-6 weeks vs. placebo, 95% CI 0.16, 0.25): 0.21 | Relative Risk, continuous smoking abstinence Weeks 6-24 (Arm B vs. Arm A, Cytisinicline-6 weeks vs. placebo, 95% CI 1.56, 8.50): 3.45 | Relative Risk, continuous smoking abstinence Weeks 12-24 (Arm B vs. Arm A, Cytisinicline-6 weeks vs. placebo, 95% CI 1.59, 5.46): 2.87 | Relative Risk, continuous smoking abstinence Weeks 9-12 (Arm B vs. Arm A, Cytisinicline-6 weeks vs. placebo, 95% CI 1.98, 5.30): 3.18 | Relative Risk, continuous smoking abstinence Weeks 3-6 (Arm B vs. Arm A, Cytisinicline-6 weeks vs. placebo, 95% CI 3.26, 10.74): 5.71 | NNT (number needed to treat), continuous smoking abstinence Weeks 3-6 (Arm B vs. Arm A, Cytisinicline-6 weeks vs. placebo, 95% CI 4, 7): 5 | NNT (number needed to treat), continuous smoking abstinence Weeks 9-12 (Arm B vs. Arm A, Cytisinicline-6 weeks vs. placebo, 95% CI 4, 11): 7 | NNT (number needed to treat), continuous smoking abstinence Weeks 12-24 (Arm B vs. Arm A, Cytisinicline-6 weeks vs. placebo, 95% CI 7, 24): 11 | NNT (number needed to treat), continuous smoking abstinence Weeks 6-24 (Arm B vs. Arm A, Cytisinicline-6 weeks vs. placebo, 95% CI 10, 40): 16 | Biochemically-confirmed continuous smoking abstinence, weeks 3 to 6 (Arm B: 3 mg cytisinicline TID 6 weeks then placebo 6 weeks): 25.3% | Continuous abstinence weeks 3 to 24 (Arm B: 6-week cytisinicline treatment): 8.9% | Relapse-free abstinence from week 6 to 24 (Arm B: switched to placebo at week 6): 10.4% | Biochemically confirmed continuous smoking abstinence Weeks 3-6, % [2]: 22.2% | Biochemically confirmed continuous smoking abstinence Weeks 9-12, % [2]: 32.6% | Biochemically confirmed continuous smoking abstinence Weeks 6-24, % [2]: 11.9% | Biochemically confirmed continuous smoking abstinence Weeks 12-24, % [2]: 21.1% | OR versus placebo, continuous abstinence weeks 9 to 24 (Arm C vs. A): 5.3 | OR versus placebo, continuous abstinence weeks 9 to 12 (Arm C vs. A (12-week treatment)): 6.3 | Risk Difference, continuous smoking abstinence Weeks 6-24 (Arm C vs. Arm A, Cytisinicline-12 weeks vs. placebo, 95% CI 0.05, 0.12): 0.09 | Risk Difference, continuous smoking abstinence Weeks 12-24 (Arm C vs. Arm A, Cytisinicline-12 weeks vs. placebo, 95% CI 0.11, 0.20): 0.16 | Risk Difference, continuous smoking abstinence Weeks 3-6 (Arm C vs. Arm A, Cytisinicline-12 weeks vs. placebo, 95% CI 0.13, 0.22): 0.18 | Risk Difference, continuous smoking abstinence Weeks 9-12 (Arm C vs. Arm A, Cytisinicline-12 weeks vs. placebo, 95% CI 0.20, 0.30): 0.26 | Relative Risk, continuous smoking abstinence Weeks 6-24 (Arm C vs. Arm A, Cytisinicline-12 weeks vs. placebo, 95% CI 2.15, 11.05): 4.59 | Relative Risk, continuous smoking abstinence Weeks 12-24 (Arm C vs. Arm A, Cytisinicline-12 weeks vs. placebo, 95% CI 2.53, 8.15): 4.40 | Relative Risk, continuous smoking abstinence Weeks 3-6 (Arm C vs. Arm A, Cytisinicline-12 weeks vs. placebo, 95% CI 2.842, 9.50): 5.02 | Relative Risk, continuous smoking abstinence Weeks 9-12 (Arm C vs. Arm A, Cytisinicline-12 weeks vs. placebo, 95% CI 2.98, 7.58): 4.65 | NNT (number needed to treat), continuous smoking abstinence Weeks 9-12 (Arm C vs. Arm A, Cytisinicline-12 weeks vs. placebo, 95% CI 3, 6): 4 | NNT (number needed to treat), continuous smoking abstinence Weeks 3-6 (Arm C vs. Arm A, Cytisinicline-12 weeks vs. placebo, 95% CI 4, 8): 6 | NNT (number needed to treat), continuous smoking abstinence Weeks 12-24 (Arm C vs. Arm A, Cytisinicline-12 weeks vs. placebo, 95% CI 4, 9): 6 | NNT (number needed to treat), continuous smoking abstinence Weeks 6-24 (Arm C vs. Arm A, Cytisinicline-12 weeks vs. placebo, 95% CI 8, 20): 11 | Biochemically-confirmed continuous smoking abstinence, weeks 9 to 12 (Arm C: 3 mg cytisinicline TID 12 weeks): 32.6% | Continuous abstinence weeks 9 to 24 (Arm C: 12-week cytisinicline treatment): 21.1% | Relapse-free abstinence from week 6 to 24 (Arm C: continued cytisinicline to week 12): 13.3% | Odds Ratio Arm B vs. Arm A, continuous smoking abstinence Weeks 6-24 (Cytisinicline 6 wk vs. placebo, 95% CI 1.5 to 10.2, P .002): 3.7 | Odds Ratio Arm B vs. Arm A, continuous smoking abstinence Weeks 3-6 (Cytisinicline 6 wk vs. placebo, 95% CI 3.9 to 16.3, P <.001): 8.0 | Odds Ratio Arm C vs. Arm A, continuous smoking abstinence Weeks 12-24 (Cytisinicline 12 wk vs. placebo, 95% CI 2.8 to 11.1, P <.001): 5.3 | Odds Ratio Arm C vs. Arm A, continuous smoking abstinence Weeks 9-12 (Cytisinicline 12 wk vs. placebo, 95% CI 3.7 to 11.6, P <.001): 6.3 | Mean total cigarette craving score (QSU-brief) (baseline to week 6, cytisinicline for 6 or 12 weeks compared to placebo): declined more rapidly
